Reference: PMC9006992 (Frontiers in Pharmacology, 2022)

How the values were obtained:
[1] = Metabolite profiling in human plasma, urine and feces pools (HPLC-AMS); type: in vivo; conditions: for Feces % of dose: based on geometric mean of total cumulative excretion in feces; for Urine % of dose: based on geometric mean of total cumulative excretion in urine
Method: For each subject, plasma samples were pooled based on the Hamilton pooling scheme ([Hamilton et al., 1981]) with samples collected within 72 h. Thereafter, a single cross-subject plasma pool was prepared by using a constant proportion of each individual Hamilton pool. Proportional pooling was applied for urine and homogenized feces samples. […] A single cross-subject pool for both excreta was prepared by taking a sample representing 10% of each individual pool to obtain a representative pool of at least 95% of the total excreted ^14C across all subjects.
Pooled plasma and feces samples were further purified by liquid-liquid extraction prior to HPLC analysis. The pooled plasma sample (4,000 μl) was extracted with 1200 μl acetonitrile:methanol (80:20, v/v) (Thermo Fisher Scientific, Waltham, MA, United States). After mixing for 1 min, the sample was centrifuged for 10 min at 3,750 rpm and 10°C […]. Thereafter, the supernatant was collected, dried, and aliquoted for analysis. These extraction steps were repeated two additional times with the remaining pellet to obtain a high extraction recovery. The homogenized feces sample (200 mg) was extracted by addition of 800 μl acetonitrile, followed by centrifugation for 5 min at 3,750 rpm and 4°C. The supernatant was collected and dried with nitrogen at 40°C. The remaining pellet was extracted by addition of 800 μl acetonitrile:water (1:1, v/v) followed by a drying process with nitrogen. The dried extract was reconstituted with acetonitrile:mobile phase A (see Analytical Method for Metabolite Profiling) (1:9, v/v) and vortexed for 5 min. […] Urine samples were directly used for analysis.
Metabolite profiles were generated by using HPLC together with an AMS detector. The plasma extract (120 μl), the feces extract (10 μl), and urine (100 μl) were injected onto the HPLC (Agilent 1290, Agilent Technologies, Santa Clara, CA, United States) equipped with a binary pump G4220A (Agilent Technologies), an autosampler G4226A (Agilent Technologies), a column compartment G1316C (Agilent Technologies), and a fraction collector G1364C (Agilent Technologies). […] Mobile phases consisted of 20 mM ammonium formate adjusted to pH 9.5 with ammonium hydroxide (phase A) and a 7:2:1 (v/v/v) mixture of acetonitrile, methanol, and mobile phase A (phase B). […] Following HPLC analysis, pools of HPLC fractions were prepared by taking equivalent portions of consecutive individual fractions for analysis with AMS (SSAMS-250, National Electrostatics Corp., Middleton, WI, United States). The amounts of ^14C in each fraction and fraction pool were summed and compared to the solution injected onto the HPLC for the determination of profile recovery.

CYP2C8 = assay: Incubation with recombinant human CYP2C8; type: in vitro ADME; conditions: intersystem extrapolation scaling approach; 100 pmol/ml CYP, 10 μM, 60 min
Method: (§1) ^14C-ACT-1004-1239 was incubated for 60 min with 100 pmol/ml of the respective recombinant CYP (CYP1A1, CYP1A2, CYP2B6, CYP2C8, CYP2C9, CYP2C19, CYP2D6, or CYP3A4) in 100 mM phosphate buffer (pH 7.4) at a final ^14C-ACT-1004-1239 concentration of 10 μM. The incubation was initiated by addition of the pre-warmed NADPH-regenerating system and terminated by the addition of one volume equivalent acetonitrile. The NADPH-regenerating system was prepared as described in Incubation With HLMs and CYP-Specific Inhibitors. The organic solvent concentration in all incubations was kept at 0.5% (v/v). Control incubations in the absence of the NADPH-regenerating system or CYP, as well as incubations with control bactosomes, were performed in parallel under otherwise identical conditions. The samples were centrifuged for 10 min at 20,800 g and 10°C to obtain the supernatant which was used for HPLC analysis (as described in Analytical Method for Metabolite Profiling). The resulting data were further used to determine their contribution to the metabolic clearance in vitro by applying the intersystem extrapolation scaling approach as described by [Chen et al. (2011)]. […]

[2] = design: method as in Richard-Bildstein et al., 2020; conditions: ref Richard-Bildstein et al., 2020; cited from earlier work
[3] = ref Huynh et al., cited from earlier work
[4] = Pharmacokinetics of total 14C-radioactivity in human plasma (microtracer, AMS); type: in vivo; conditions: single oral 9.2 μg 14C-ACT-1004-1239 + 100 mg ACT-1004-1239
CYP2C19 = assay: Incubation with recombinant human CYP2C19; type: in vitro ADME; conditions: intersystem extrapolation scaling approach; 100 pmol/ml CYP, 10 μM, 60 min
Method: as §1

CYP3A4 = assay: Incubation with recombinant human CYP3A4; type: in vitro ADME; conditions: intersystem extrapolation scaling approach; 100 pmol/ml CYP, 10 μM, 60 min
Method: as §1

[5] = test system: human liver microsomes (HLM); assay: Incubation with HLMs and CYP-specific inhibitors; type: in vitro ADME; conditions: 10 μM 14C-ACT-1004-1239, 1 μM ketoconazole (CYP3A4 inhibitor)
[6] = test system: carboxylesterases (i.e., CES1b, CES1c, and CES2); assay: Exploratory in vitro studies on enzymes catalyzing formation of M23; type: in vitro ADME; conditions: Idorsia data on file
[7] = Quantification of M38 in pooled human plasma using a synthesized reference; type: in vivo; conditions: non-radiolabelled metabolite

In the case of `O=C(N[C@H]1CCNC[C@@H]1C(=O)NC1(c2ncccn2)CC1)c1cc(-c2ccc(F)cc2F)on1` [M1], the “Urine + feces % of dose” value ([1]; 14C-radioactive dose excreted) is reported as 25.1%, the “Feces % of dose” value [1] is reported as 23.7% and the “Urine % of dose” value [1] is reported as 1.4%.

For `O=C(N[C@H]1CCN(CC2CC2)C[C@@H]1C(=O)NC1(c2ncccn2)CC1)c1cc(-c2ccc(F)cc2F)on1` [ACT-1004-1239], the “contribution of CYP2C8 to M1 formation” value (CYP2C8) is listed as 1.2%, the absorption in rats [2] is listed as “rapidly absorbed” and the “volume of distribution in rats” value [2] is listed as “in excess of total body water”. The “safety and tolerability profile” value ([3]; healthy humans, dose range 1–200 mg, single and multiple dose, 2021b, Huynh et al., 2021a) was “favorable safety and tolerability profiles”, the “time to reach maximum plasma concentration [tmax]” value ([3]; male and female subjects, oral 1-200 mg, 2021a, Huynh et al., 2021b) was 1 to 3 h and the “accumulation at steady state” value ([3]; multiple-dose, 2021a) was “almost no accumulation”. For the same molecule, the “time to steady-state conditions of systemic exposure” value ([3]; multiple-dose, 2021a) was no more than 3 days, the absolute bioavailability ([3]; 2021b) was 53% and the “effect of food on the PK” value ([3]; 2021b) was “no relevant effect”. The volume of distribution ([3]; 2021b) was 183 L, the “plasma concentration of 14C-drug-related material after 72 h post-dose” value [4] was “below the limit of quantification” and the “contribution of CYP2C19 to M1 formation” value (CYP2C19) was 5.2%. The “Feces % of dose” value [1] was 5.2%, the “Urine % of dose” value [1] was 10.1% and the “contribution of CYP3A4 to total M1 formation (total turnover in vitro)” value (CYP3A4) was 94%.

With `CC(=O)N1CCN(c2ccc(OCC3COC(Cn4ccnc4)(c4ccc(Cl)cc4Cl)O3)cc2)CC1` (stereo not shown) [ketoconazole] the “formation of M1 in presence of inhibitor” value [5] was “completely abolished”.

With `O=C(O)c1cc(-c2ccc(F)cc2F)on1` [M23] the “involvement of carboxylesterases in formation of M23” value [6] was “excluded the involvement of carboxylesterases” and the “Plasma % in sample (relative abundance, % of total radioactivity)” value ([1]; cross-subject plasma pool, samples within 72 h) was 21.1%.

In the case of `N[C@H]1CCN(CC2CC2)C[C@@H]1C(=O)NC1(c2ncccn2)CC1` [M38], the “presence in pooled human plasma” value [7] is reported as “negligible”.
